Assay results as given in patent US20260132165A1, “MODIFIED NUCLEOSIDE ANALOGUE AND USE THEREOF, AND NUCLEOSIDE ANALOGUE-CONTAINING DOUBLE-STRANDED OLIGONUCLEOTIDE AND USE THEREOF” (RIGERNA THERAPEUTICS (BEIJING) CO., LTD., priority 2023, published 2026).

Key:
target gene SOD1 [1] = assay: Test Example 8: inhibitory activity on target gene SOD1 in adipose tissues in different parts of mice; type: in vivo, C57BL/6j mice; settings: D14; for Subcutaneous fat % Mean value of inhibition rate: abdominal subcutaneous fat; for Subcutaneous fat % Mean value of inhibition rate / Brown fat on back % Mean value of inhibition rate / Paragonadal fat % Mean value of inhibition rate: tail vein injection 5 mg/kg
Experimental: (§1) RNA extraction: the above tissue samples were taken out from the RNAlater, and smashed for 60 s in Tissuelyser type II full-automatic tissue homogenizer, and total RNAs of various tissue samples were extracted using the full-automatic nucleic acid extraction instrument and the nucleic acid extraction kit from Zhejiang Hanwei Science and Technology Co. Ltd. according to methods described in instructions.
(§2) Reverse transcription reaction: 1 μg of the extracted total RNAs of the tissue samples were taken, and configured into 20 μL of reverse transcription system according to a method described in kit instructions by using a reverse transcription kit (Reverse Transcription System, A3500) from Promega Corporation and selecting Oligo (dT)15 reverse transcription primers, and the reverse transcription reaction was completed. After the reaction was ended, 80 μL of RNase-Free water was added into the reverse transcription system to provide cDNA solution for Real-time PCR detection.
(§3) Real-time PCR detection: 20 μL of Real-time PCR reaction system per PCR detection well was configured according to a method described in kit instructions using SYBR™ Select Master Mix (Catalog number: 4472908) reagent from ABI company. Each detection system contained 5 μL of cDNA template obtained from the above reverse transcription reaction, 10 μL of SYBR™ Select Master Mix, 0.5 μL of 10 μM upstream primers, 0.5 μL of 10 μM downstream primers, and 4 μL of RNase-Free H2O. The configured reaction system was subjected to Real-time PCR amplification on ABI StepOnePlus PCR instrument by a three-step method, wherein an amplification procedure was pre-denaturation at 95° C. for 10 min, then denaturation at 95° C. for 30 s, annealing at 60° C. for 30 s, and extension at 72° C. for 30 s; and processes of denaturation, annealing, and extension were repeated for 40 cycles. Gene expression differences were calculated by the ΔΔCt method after completion of the procedure.
(§4) In the real-time fluorescence quantitative PCR method, relative quantitative calculation of remaining expression level and inhibition rate of gene mRNA of interest in various test groups was performed by the ΔΔCt method, and the calculation method is as follows:
(§5) The present test example evaluated, by an evaluation method for inhibitory activity on a target gene in mice, the inhibitory activity of siRNA sequence RZ899090 with the sense strand with the NM073 conjugation at Position 4, siRNA sequence RZ899091 with the sense strand with the NM074 conjugation at Position 4, siRNA sequence RZ899078 with the sense strand with the NM202 conjugation at Position 6 and siRNA reference sequence RZ899093 with the sense strand with the Uhd conjugation at Position 4, siRNA reference sequence RZ899076 with the sense strand with the NM200 conjugation at Position 4 on the target gene SOD1 in adipose tissues of interest in mice.
(§6) 6-8 Week-old C57BL/6j mice were randomly grouped by body weight, 5 per group, 6 groups in total. Mice in each group were dosed with the above siRNA conjugates by tail vein injection, with an administration dose of 5 mg/kg per mouse, and an administration volume of 150 μL. PBS control group was administered with the same volume of siRNA conjugate-free PBS solution. The day of administration was recorded as D0, and 5 mice in each group were sacrificed on D14 after administration. Paragonadal fat, abdominal subcutaneous fat, and brown fat on back were respectively taken. RNA extraction, reverse transcription, and real-time fluorescence quantitative detection were performed on various tissues according to the above method, and gene expression differences were calculated by the above ΔΔCt method.

target gene SOD1 [2] = assay: Test Example 7: inhibitory activity of lipid conjugated siRNA sequences on SOD1 in mouse adipose and muscle tissues (tail vein injection); type: in vivo, C57BL/6j mice; settings: for inhibitory action on liver and kidney tissues: liver and kidney (non-target tissues), D28 and D49; for inhibitory action on liver and kidney tissues / inhibitory activity compared with the NM200 conjugated reference sequence RZ899076 / inhibitory activity compared with Uhd conjugated reference sequence RZ899093 and NM200 conjugated reference sequence RZ899076 / inhibitory activity in mouse skeletal muscle tissues: tail vein 5 mg/kg; for D 14 % Mean value of inhibition rate / D 28 % Mean value of inhibition rate / D 49 % Mean value of inhibition rate / Kidney D 14 % Mean value of inhibition rate / Kidney D 28 % Mean value of inhibition rate / Kidney D 49 % Mean value of inhibition rate / Liver D 14 % Mean value of inhibition rate / Liver D 28 % Mean value of inhibition rate / Liver D 49 % Mean value of inhibition rate: tail vein injection 5 mg/kg; for D 14 % Mean value of inhibition rate / inhibitory activity compared with the NM200 conjugated reference sequence RZ899076 / Kidney D 14 % Mean value of inhibition rate / Liver D 14 % Mean value of inhibition rate: D14; for D 28 % Mean value of inhibition rate / Kidney D 28 % Mean value of inhibition rate / Liver D 28 % Mean value of inhibition rate: D28; for D 49 % Mean value of inhibition rate / Kidney D 49 % Mean value of inhibition rate / Liver D 49 % Mean value of inhibition rate: D49; for inhibitory activity compared with the NM200 conjugated reference sequence RZ899076: mouse adipose tissues; for inhibitory activity compared with Uhd conjugated reference sequence RZ899093 and NM200 conjugated reference sequence RZ899076: D14, D28 and D49; for Kidney D 14 % Mean value of inhibition rate / Kidney D 28 % Mean value of inhibition rate / Kidney D 49 % Mean value of inhibition rate: mouse kidney; for Liver D 14 % Mean value of inhibition rate / Liver D 28 % Mean value of inhibition rate / Liver D 49 % Mean value of inhibition rate: mouse liver
Experimental: as §1, §2, §3, §4
as §5, with “Position 4, and siRNA reference” for “Position 4, siRNA reference”, “gene SOD1 of interest” for “gene SOD1 in adipose tissues of interest”, “in mice. The above conjugation vectors were different in that NM073 was C18 aliphatic chain, NM074 was C20 aliphatic chain, and NM0202 and NM0200 were C22 aliphatic chains.” for “in mice.”
as §6, with “weight, 15” for “weight, 5”, “on D14, D28 and D49” for “on D14”, “administration. Tissues such as paragonadal” for “administration. Paragonadal”, “fat, left hind leg quadriceps muscle, heart, liver,” for “fat, abdominal subcutaneous fat,”, “and kidney” for “and brown fat on back”, “respectively taken and stored in the RNAlater.” for “respectively taken.”

[3] = mouse adipose tissues (paragonadal fat)
[4] = mouse skeletal muscle tissues (left hind leg quadriceps muscle)

## RZ899078: siRNA sequence with the sense strand with the NM202 (C22) conjugation at Position 6; SEQ ID NO: 20 / 24 (sense UUUUANUCCUCACUCUAAA; antisense UUUAGAGUGAGGAUUAAAAUG; NM202 (C22) conjugate at sense position 6; modified_base 1..2 OTHER; 2'-methoxy and 5'-thiophosphate modified nucleotides; modified_base 3..5 OTHER; 2'-methoxy modified nucleotides; modified_base 6 OTHER; n is the synthetic nucleotide analog NM202 as described in the disclosure.; modified_base 7..10 OTHER; 2'-fluoro modified nucleotides; modified_base 11..19 OTHER; modified_base 1 OTHER; 2'-methoxy and 5'-thiovinylphosphonate modified nucleotide; modified_base 2 OTHER; 2'-fluoro and 5'-thiophosphate modified nucleotide; modified_base 6 OTHER;)
Target gene SOD1 [1]
  Subcutaneous fat % Mean value of inhibition rate: 71.42%
  Brown fat on back % Mean value of inhibition rate: 67.27%
  Paragonadal fat % Mean value of inhibition rate: 55.23%
Target gene SOD1 [2]
  inhibitory action on liver and kidney tissues: no inhibitory action
  inhibitory activity compared with the NM200 conjugated reference sequence RZ899076: on par
  Kidney D 14 % Mean value of inhibition rate: −7.92%
  Kidney D 28 % Mean value of inhibition rate: 1.46%
  Kidney D 49 % Mean value of inhibition rate: 2.03%
  Liver D 14 % Mean value of inhibition rate: 20.63%
  Liver D 28 % Mean value of inhibition rate: 15.46%
  Liver D 49 % Mean value of inhibition rate: −11.54%
  inhibitory activity in mouse skeletal muscle tissues: highest inhibitory activity in muscles
Target gene SOD1 [2]; [3]
  D 14 % Mean value of inhibition rate: 91.53%
  D 28 % Mean value of inhibition rate: 75.82%
  D 49 % Mean value of inhibition rate: 65.16%
Target gene SOD1 [2]; mouse heart tissues
  inhibitory activity compared with Uhd conjugated reference sequence RZ899093 and NM200 conjugated reference sequence RZ899076: superior inhibitory activity
  D 14 % Mean value of inhibition rate: 83.53%
  D 28 % Mean value of inhibition rate: 79.52%
  D 49 % Mean value of inhibition rate: 63.42%
Target gene SOD1 [2]; [4]
  D 14 % Mean value of inhibition rate: 71.63%
  D 28 % Mean value of inhibition rate: 69.78%

## RZ899090: siRNA sequence with the sense strand with the NM073 (C18) conjugation at Position 4; SEQ ID NO: 15 / 23 (sense UUUNAAUCCUCACUCUAAA; antisense UUUAGAGUGAGGAUUAAAAUG; NM073 (C18) conjugate at sense position 4; modified_base 1..2 OTHER; 2'-methoxy and 5'-thiophosphate modified nucleotides; modified_base 3 OTHER; 2'-methoxy modified nucleotide; modified_base 4 OTHER; n is the nucleotide analog NM073 as described in the disclosure.; modified_base 5..6 OTHER; 2'-methoxy modified nucleotides; modified_base 7..10 OTHER; 2'-fluoro modified nucleotides; modified_base 11..19 OTHER; modified_base 1 OTHER; 2'-methoxy and 5'-thiovinylphosphonate modified nucleotide; modified_base 2 OTHER; 2'-fluoro and 5'-thiophosphate modified nucleotide; modified_base 3..5 OTHER; …)
Target gene SOD1 [1]
  Subcutaneous fat % Mean value of inhibition rate: 71.07%
  Brown fat on back % Mean value of inhibition rate: 81.60%
  Paragonadal fat % Mean value of inhibition rate: 67.09%
Target gene SOD1 [1]; paragonadal fat and brown fat on back, tail vein 5 mg/kg
  inhibitory activity compared with the NM200 conjugated reference sequence RZ899076: equivalent or superior inhibitory activity
Target gene SOD1 [1]; subcutaneous fat, tail vein 5 mg/kg
  inhibitory action on the target gene compared with RZ899076: substantially comparable
Target gene SOD1 [2]
  inhibitory action on liver and kidney tissues: no inhibitory action
  inhibitory activity compared with the NM200 conjugated reference sequence RZ899076: on par
  Kidney D 14 % Mean value of inhibition rate: 31.38%
  Kidney D 28 % Mean value of inhibition rate: 15.90%
  Kidney D 49 % Mean value of inhibition rate: 7.12%
  Liver D 14 % Mean value of inhibition rate: 36.99%
  Liver D 28 % Mean value of inhibition rate: 7.32%
  Liver D 49 % Mean value of inhibition rate: −12.46%
  inhibitory activity in mouse skeletal muscle tissues: certain inhibitory activity
Target gene SOD1 [2]; [3]
  D 14 % Mean value of inhibition rate: 92.09%
  D 28 % Mean value of inhibition rate: 85.11%
  D 49 % Mean value of inhibition rate: 61.34%
Target gene SOD1 [2]; mouse heart tissues
  inhibitory activity compared with Uhd conjugated reference sequence RZ899093 and NM200 conjugated reference sequence RZ899076: superior inhibitory activity
  D 14 % Mean value of inhibition rate: 79.58%
  D 28 % Mean value of inhibition rate: 82.12%
  D 49 % Mean value of inhibition rate: 65.43%
Target gene SOD1 [2]; [4]
  D 14 % Mean value of inhibition rate: 57.16%
  D 28 % Mean value of inhibition rate: 51.23%
  D 49 % Mean value of inhibition rate: 42.93%
